According to ChEMBL document CHEMBL5113484, “Synthesis and biological evaluation of novel pentanediamide derivatives as S-adenosyl-l-homocysteine hydrolase inhibitors” (Bioorg Med Chem Lett, 2022):

What was measured:
L02 = assay: Cytotoxicity against human L02 cells assessed as cell growth inhibition; type: functional, cell-based
HeLa = assay: Cytotoxicity against human HeLa cells assessed as cell growth inhibition; type: functional, cell-based
MGC-803 = assay: Cytotoxicity against human MGC-803 cells assessed as cell growth inhibition; type: functional, cell-based
MCF7 = assay: Cytotoxicity against human MCF7 cells assessed as cell growth inhibition; type: functional, cell-based
A549 = assay: Cytotoxicity against human A549 cells assessed as cell growth inhibition; type: functional, cell-based
[1] = Selectivity index, ratio of CC50 for cytotoxicity against African green monkey Vero cells to EC50 for antiviral activity against Respiratory syncytial virus; type: toxicity, cell-based; settings: read-out: Ratio CC50/EC50
[2] = tested on: Vesicular stomatitis virus; assay: Antiviral activity against Vesicular stomatitis virus assessed as viral growth inhibition; type: functional, organism-based
Adenosylhomocysteinase = Adenosylhomocysteinase (Homo sapiens, UniProt P23526); assay: Inhibition of SAH hydrolase (unknown origin)
Chain of Adenosylhomocysteinase (P23526 whole entry): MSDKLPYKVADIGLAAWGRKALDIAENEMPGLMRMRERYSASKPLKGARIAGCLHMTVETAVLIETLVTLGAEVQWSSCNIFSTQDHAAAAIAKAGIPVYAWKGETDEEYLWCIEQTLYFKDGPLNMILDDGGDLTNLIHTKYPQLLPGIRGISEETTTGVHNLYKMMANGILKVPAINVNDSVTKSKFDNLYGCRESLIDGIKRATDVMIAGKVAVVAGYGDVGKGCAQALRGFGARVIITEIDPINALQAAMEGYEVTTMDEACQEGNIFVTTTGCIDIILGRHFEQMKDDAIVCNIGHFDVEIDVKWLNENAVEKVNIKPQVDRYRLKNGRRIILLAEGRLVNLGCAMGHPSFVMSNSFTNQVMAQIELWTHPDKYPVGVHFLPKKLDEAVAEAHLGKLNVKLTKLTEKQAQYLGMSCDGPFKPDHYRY

[3] = tested on: Respiratory syncytial virus; assay: Antiviral activity against Respiratory syncytial virus assessed as viral growth inhibition; type: functional, organism-based; settings: human respiratory syncytial virus
[4] = Cytotoxicity against African green monkey Vero cells assessed as cell growth inhibition; type: toxicity, cell-based; settings: chlorocebus sabaeus
[5] = Selectivity index, ratio of CC50 for cytotoxicity against African green monkey Vero cells to EC50 for antiviral activity against Vesicular stomatitis virus; type: toxicity, cell-based; settings: read-out: Ratio CC50/EC50

SMILES	IC50 (L02) [µM]	IC50 (HeLa) [µM]	IC50 (MGC-803) [µM]	IC50 (MCF7) [µM]	IC50 (A549) [µM]	selectivity ratio [1]	EC50 [2] [µM]	IC50 (Adenosylhomocysteinase) [µM]	EC50 [3] [µM]	CC50 [4] [µM]	selectivity ratio [5]
O=C(CC(CC(=O)NC1Cc2ccccc2C1)c1ccc(Cl)cc1)NCCN1CCCC1 (stereo not given)	89.4	77.3	> 100	> 100	50.9	–	–	–	–	–	–
CCNCCNC(=O)CC(CC(=O)NC1Cc2ccccc2C1)c1ccccc1 (stereo not given)	> 100	> 100	> 100	> 100	> 100	–	–	–	–	–	–
O=C(CC(CC(=O)NC1Cc2ccccc2C1)c1ccc(Cl)cc1)NCCN1CCCCC1 (stereo not given)	70.4	86.2	89.1	35.5	28	–	–	–	–	–	–
CCN(CC)CCNC(=O)CC(CC(=O)N(CC)C1Cc2ccccc2C1)c1ccc(Cl)cc1 (stereo not given)	78.4	24.3	44.9	23	18.4	1.01	38.9	3.72	91.1	91.8	2.36
CCN(CC)CCNC(=O)CC(CC(=O)N(C)C1Cc2ccccc2C1)c1ccccc1 (stereo not given)	> 100	> 100	> 100	> 100	> 100	–	–	–	–	–	–
Cc1ccc(C(CC(=O)NCCN2CCCCC2)CC(=O)NC2Cc3ccccc3C2)cc1 (stereo not given)	> 100	> 100	> 100	> 100	> 100	–	–	–	–	–	–
CCN(CC)CCNC(=O)CC(CC(=O)N(C)C1Cc2ccccc2C1)c1ccc(Cl)cc1 (stereo not given)	56.5	48.1	81.2	28.8	21.4	–	–	–	–	–	–
CCNCCNC(=O)CC(CC(=O)N(CC)C1Cc2ccccc2C1)c1ccc(Cl)cc1 (stereo not given)	66.2	40.5	43.8	14.4	19.4	–	> 100	3.78	> 100	144	–
CCN(CC)CCNC(=O)CC(CC(=O)NC1Cc2ccccc2C1)c1ccc(Cl)cc1 (stereo not given)	76.7	50.5	> 100	75	48.6	–	–	3.68	–	–	–
Nc1nccc2c1ncn2[C@@H]1O[C@H](CO)[C@@H](O)[C@H]1O	94.4	–	41.1	40.3	57.4	–	–	5.39	–	–	–
CN(C(=O)CC(CC(=O)NCCN1CCCC1)c1ccccc1)C1Cc2ccccc2C1 (stereo not given)	> 100	> 100	> 100	> 100	> 100	–	–	–	–	–	–
CCNCCNC(=O)CC(CC(=O)NC1Cc2ccccc2C1)c1ccc(Cl)cc1 (stereo not given)	83.7	68.4	> 100	> 100	52	–	–	–	–	–	–
O=C(CC(CC(=O)NC1Cc2ccccc2C1)c1ccccc1)NCCN1CCCC1 (stereo not given)	> 100	> 100	> 100	> 100	> 100	–	–	–	–	–	–
CCN(CC)CCNC(=O)CC(CC(=O)NC1Cc2ccccc2C1)c1ccccc1 (stereo not given)	> 100	> 100	> 100	> 100	82.4	–	–	–	–	–	–
CNCCNC(=O)CC(CC(=O)NC1Cc2ccccc2C1)c1ccc(Cl)cc1 (stereo not given)	> 100	> 100	> 100	> 100	> 100	–	–	–	–	–	–
CN(C(=O)CC(CC(=O)NCCN1CCCC1)c1ccc(Cl)cc1)C1Cc2ccccc2C1 (stereo not given)	81.5	55.4	83.8	76.7	56	–	–	–	–	–	–
CCN(C(=O)CC(CC(=O)NCCN1CCCCC1)c1ccc(Cl)cc1)C1Cc2ccccc2C1 (stereo not given)	84.2	20.4	21.2	16.5	13.2	6.84	> 100	3.58	27.4	187	–
CCN(C(=O)CC(CC(=O)NCCN1CCCCC1)c1ccccc1)C1Cc2ccccc2C1 (stereo not given)	> 100	> 100	> 100	> 100	84.5	–	–	–	–	–	–
O=C(CC(CC(=O)NC1Cc2ccccc2C1)c1ccccc1)NCCN1CCCCC1 (stereo not given)	> 100	> 100	> 100	> 100	> 100	–	–	–	–	–	–
CCN(C(=O)CC(CC(=O)NCCN1CCCC1)c1ccc(Cl)cc1)C1Cc2ccccc2C1 (stereo not given)	54.2	36.4	55.5	20.4	22.6	–	–	–	–	–	–
CCNCCNC(=O)CC(CC(=O)N(CC)C1Cc2ccccc2C1)c1ccccc1 (stereo not given)	> 100	> 100	> 100	> 100	> 100	–	–	3.48	–	–	–
CCN(C(=O)CC(CC(=O)NCCN1CCCC1)c1ccccc1)C1Cc2ccccc2C1 (stereo not given)	> 100	> 100	> 100	> 100	> 100	–	–	–	–	–	–
O=c1[nH]cc(F)c(=O)[nH]1 [FLUOROURACIL]	46.5	–	38.5	48.5	–	–	–	–	–	–	–
